Some test systems named below: Malme-3M; RXF 393; BT-549; EKVX; MDA-N; OVCAR-8; OVCAR-5; MDA-MB-435; SF-295; UACC-62; SK-MEL-2; HCT-15; SR; HCT-116; NCI-H23; SF-268; SF-539; NCI/ADR-RES; DU-145; ACHN.
Holding throughout (experiment): DTP human tumour cell line panel, 48 h

Each structure is given as a SMILES string.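 Test compounds were applied to cells in 96-well plates for 48 hours at 5 doses. GI50: concentration for 50% inhibition of growth.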 Active and inactive are the calls of the source. Rule as the data show it: active = GI50 up to about 1.1 µM and inactive = higher.

For `C=C(C)[C@@H]1CC[C@]2(C(=O)O)CC[C@]3(C)[C@H](CC[C@@H]4[C@@]5(C)CC[C@H](C(=O)/C=C/c6ccc(O)cc6)C(C)(C)[C@@H]5CC[C@]43C)[C@@H]12`, the GI50 in the assay on Malme-3M was 13.5 µM (inactive); in the assay on RXF 393 it was 6.41 µM (inactive); with BT-549, 10.4 µM (inactive); with EKVX it was 2.47 µM (inactive); in the assay on MDA-N it was 4.72 µM (inactive); in the assay with OVCAR-8, 4.3 µM (inactive). Further, the GI50 is 11.5 µM (inactive) in the assay on OVCAR-5; 7.67 µM (inactive) in the assay with MDA-MB-435; 6.15 µM (inactive) in the assay with SF-295; 8.89 µM (inactive) in the assay on UACC-62; 16.3 µM (inactive) with SK-MEL-2; 3.45 µM in the assay with HCT-15. The GI50 was 4.06 µM (inactive) in the assay with SR; 2.51 µM (inactive) with HCT-116; 4.22 µM (inactive) with NCI-H23; 8.11 µM (inactive) with SF-268; 3.01 µM (inactive) with SF-539; 3.22 µM (inactive) in the assay on NCI/ADR-RES. The GI50 with DU-145 was 5.73 µM (inactive).

For `CCN(CC)c1ccc2cc(C(N)=S)c(=N)oc2c1`, the GI50 in the assay on Malme-3M is 87.9 µM (inactive); in the assay with RXF 393 it was > 100 µM (inactive); with BT-549, 37.9 µM (inactive); in the assay with EKVX it was > 100 µM (inactive); in the assay with MDA-N, > 100 µM (inactive); in the assay on OVCAR-8, > 100 µM (inactive). Also, the GI50 in the assay on OVCAR-5, with MDA-MB-435, in the assay on SF-295, in the assay with UACC-62, in the assay on ACHN and in the assay on SK-MEL-2 was > 100 µM (inactive) throughout. The GI50 is over 100 µM in the assay with HCT-15; > 100 µM (inactive) with SR; > 100 µM (inactive) in the assay on HCT-116; > 100 µM (inactive) in the assay with SF-268; > 100 µM (inactive) with SF-539; > 100 µM (inactive) in the assay with NCI/ADR-RES. Further, the GI50 in the assay with DU-145 was > 100 µM (inactive).

Turning to `CSc1c(C#N)c(O)nc(N)c1C(=O)Nc1ccc(C)cc1`, the GI50 in the assay on Malme-3M, with RXF 393, in the assay with BT-549, in the assay with EKVX, in the assay on MDA-N and with OVCAR-8 was > 100 µM (inactive) each time. The GI50 in the assay on OVCAR-5 was > 100 µM (inactive); in the assay with MDA-MB-435, > 100 µM (inactive); in the assay with UACC-62 it was > 100 µM (inactive); in the assay on SK-MEL-2 it was > 100 µM (inactive); in the assay on HCT-15, over 100 µM; in the assay on SR it was > 100 µM (inactive). Also, the GI50 in the assay on HCT-116 was > 100 µM (inactive); in the assay on NCI-H23 it was 90.6 µM (inactive); with SF-268, > 100 µM (inactive); in the assay with SF-539, > 100 µM (inactive); in the assay with NCI/ADR-RES, > 100 µM (inactive); with DU-145 it was > 100 µM (inactive).

As for `CC(=O)OC12CC(C)C3(O)C4C=C(C)C(=O)[C@@]4(O)CC(CO)=C[C@H]3C1C2(C)C` (stereo not given in full), the GI50 in the assay on Malme-3M is > 10 µM (inactive); with RXF 393 it was > 100 µM (inactive); with BT-549, > 10 µM (inactive); with EKVX it was > 10 µM (inactive); in the assay with MDA-N, 2.69 µM (inactive); in the assay with OVCAR-8, > 10 µM (inactive). For the same compound, the GI50 is > 10 µM (inactive) in the assay on OVCAR-5; 3.67 µM (inactive) with MDA-MB-435; 771 µM (inactive) with UACC-62; > 10 µM (inactive) in the assay with ACHN; > 10 µM (inactive) with SK-MEL-2; over 10 µM with HCT-15. Moreover, the GI50 in the assay on SR, in the assay on HCT-116, in the assay with NCI-H23, in the assay on SF-268, in the assay on SF-539 and in the assay on NCI/ADR-RES was > 10 µM (inactive) throughout. For the same compound, the GI50 in the assay with DU-145 is > 10 µM (inactive).

In general, GI50 refers to the concentration that inhibits growth by half.

(Values after ChEMBL document CHEMBL1201862, “PubChem BioAssay data set” (2004).)
